In brackets after ≈: the same amount, converted by molar mass.
What was measured:
Assay in all cases: MIC, agar dilution test; Denley multipoint inoculation procedure
Type in all cases: cell-based
E. coli A 261 = settings: Escherichia coli, A261, read-out: Minimum inhibitory concentration
Source text: (§1) In the table below, the minimum inhibitory concentrations (MIC) with a variety of bacteria for some of the compounds according to the invention are given. |Minimum inhibitory concentrations in mcg/ml in the agar dilution test;

E. coli Neumann = settings: Escherichia coli, read-out: Minimum inhibitory concentration
Source text: as §1

Klebsiella 57 USA = settings: read-out: Minimum inhibitory concentration
Source text: as §1

Klebsiella 6179 = settings: read-out: Minimum inhibitory concentration
Source text: as §1

Klebsiella 8085 = settings: read-out: Minimum inhibitory concentration
Source text: as §1

Proteus morganii 932 = settings: Morganella morganii, read-out: Minimum inhibitory concentration
Source text: as §1

Providencia 12052 = settings: read-out: Minimum inhibitory concentration
Source text: as §1

Staphylococcus 133 = settings: read-out: Minimum inhibitory concentration
Source text: as §1

Staphylococcus 1746 = settings: read-out: Minimum inhibitory concentration
Source text: as §1

Staphylococcus Fk 422 = settings: FK422, read-out: Minimum inhibitory concentration
Source text: as §1

**Q.** Which MIC (E. coli A 261) does the source give for `CC(=O)CN1CCN(c2cc3c(cc2F)c(=O)c(C(=O)O)cn3C2CC2)CC1` [Example 1, 1-cyclopropyl-6-fluoro-1,4-dihydro-4-oxo-7-[4-(2-oxopropyl)-1-piperazinyl]quinoline-3-carboxylic acid] here?
**A.** ≤ 0.015 mg/L

**Q.** What about the MIC (E. coli Neumann) of the same compound?
**A.** 0.06 mg/L (≈ 0.155 µM)

**Q.** And the MIC (Klebsiella 57 USA)?
**A.** 1 mg/L (≈ 2.58 µM)

**Q.** And the MIC (Klebsiella 6179)?
**A.** 2 mg/L (≈ 5.16 µM)

**Q.** What about the MIC (Klebsiella 8085) of the same compound?
**A.** 0.06 mg/L (≈ 0.155 µM)

**Q.** And the MIC (Proteus morganii 932)?
**A.** 0.06 mg/L (≈ 0.155 µM)

**Q.** And the MIC (Providencia 12052)?
**A.** 128 mg/L (≈ 330 µM)

**Q.** And the MIC (Staphylococcus 133)?
**A.** 0.25 mg/L (≈ 0.645 µM)

**Q.** And the MIC (Staphylococcus 1746)?
**A.** 0.25 mg/L (≈ 0.645 µM)

**Q.** What about the MIC (Staphylococcus Fk 422) of the same compound?
**A.** 0.25 mg/L (≈ 0.645 µM)

**Q.** What does the source list for `O=C(CN1CCN(c2cc3c(cc2F)c(=O)c(C(=O)O)cn3C2CC2)CC1)c1ccc(Cl)cc1` [Example 9]?
**A.** MIC (E. coli A 261): ≤ 0.015 mg/L; MIC (E. coli Neumann): 0.03 mg/L (≈ 0.062 µM); MIC (Klebsiella 57 USA): 0.5 mg/L (≈ 1.03 µM); MIC (Klebsiella 6179): 1 mg/L (≈ 2.07 µM); MIC (Klebsiella 8085): 0.125 mg/L (≈ 0.258 µM); MIC (Proteus morganii 932): 0.03 mg/L (≈ 0.062 µM); MIC (Providencia 12052): > 128 mg/L; MIC (Staphylococcus 133): 2 mg/L (≈ 4.13 µM); MIC (Staphylococcus 1746): 2 mg/L (≈ 4.13 µM); MIC (Staphylococcus Fk 422): 2 mg/L (≈ 4.13 µM)

**Q.** How did the MIC (E. coli A 261) turn out when `O=C(CN1CCN(c2cc3c(cc2F)c(=O)c(C(=O)O)cn3C2CC2)CC1)c1ccccc1` [Example 4] was run?
**A.** ≤ 0.015 mg/L

**Q.** And the MIC (E. coli Neumann)?
**A.** 0.03 mg/L (≈ 0.0667 µM)

**Q.** And the MIC (Klebsiella 57 USA)?
**A.** 0.06 mg/L (≈ 0.133 µM)

**Q.** And the MIC (Klebsiella 6179)?
**A.** 0.5 mg/L (≈ 1.11 µM)

**Q.** And the MIC (Klebsiella 8085)?
**A.** 0.125 mg/L (≈ 0.278 µM)

**Q.** And the MIC (Proteus morganii 932)?
**A.** ≤ 0.015 mg/L

**Q.** What about the MIC (Providencia 12052) of the same compound?
**A.** 128 mg/L (≈ 285 µM)

**Q.** And the MIC (Staphylococcus 133)?
**A.** 2 mg/L (≈ 4.45 µM)

**Q.** What about the MIC (Staphylococcus 1746) of the same compound?
**A.** 1 mg/L (≈ 2.22 µM)

**Q.** And the MIC (Staphylococcus Fk 422)?
**A.** 2 mg/L (≈ 4.45 µM)

**Q.** For `O=C(CN1CCN(c2cc3c(cc2F)c(=O)c(C(=O)O)cn3C2CC2)CC1)c1ccc(O)cc1O` [Example 5], which MIC (Staphylococcus 133) is on record?
**A.** 0.25 mg/L (≈ 0.519 µM)

**Q.** And the MIC (Staphylococcus 1746)?
**A.** 0.25 mg/L (≈ 0.519 µM)

**Q.** And the MIC (Staphylococcus Fk 422)?
**A.** 0.25 mg/L (≈ 0.519 µM)

**Q.** What does the source list for `CC(=O)CCN1CCN(c2cc3c(cc2F)c(=O)c(C(=O)O)cn3C2CC2)CC1` [Example 12, 1-cyclopropyl-6-fluoro-1,4-dihydro-4-oxo-7-[4-(3-oxobutyl)-1-piperazinyl]quinoline-3-carboxylic acid]?
**A.** MIC (E. coli A 261): ≤ 0.015 mg/L; MIC (E. coli Neumann): ≤ 0.015 mg/L; MIC (Klebsiella 57 USA): 0.06 mg/L (≈ 0.149 µM); MIC (Klebsiella 6179): 0.25 mg/L (≈ 0.623 µM); MIC (Klebsiella 8085): ≤ 0.015 mg/L; MIC (Proteus morganii 932): ≤ 0.015 mg/L; MIC (Providencia 12052): 32 mg/L (≈ 79.7 µM); MIC (Staphylococcus 133): 0.5 mg/L (≈ 1.25 µM); MIC (Staphylococcus 1746): 0.5 mg/L (≈ 1.25 µM); MIC (Staphylococcus Fk 422): 0.5 mg/L (≈ 1.25 µM)

**Q.** For `O=C(CN1CCN(c2cc3c(cc2F)c(=O)c(C(=O)O)cn3C2CC2)CC1)c1ccc(F)cc1` [Example 8], which MIC (E. coli A 261) is on record?
**A.** ≤ 0.015 mg/L

**Q.** And the MIC (E. coli Neumann)?
**A.** 0.015 mg/L (≈ 0.0321 µM)

**Q.** What about the MIC (Klebsiella 57 USA) of the same compound?
**A.** 0.03 mg/L (≈ 0.0642 µM)

**Q.** What about the MIC (Klebsiella 6179) of the same compound?
**A.** 0.25 mg/L (≈ 0.535 µM)

**Q.** And the MIC (Klebsiella 8085)?
**A.** 0.03 mg/L (≈ 0.0642 µM)

**Q.** What about the MIC (Proteus morganii 932) of the same compound?
**A.** ≤ 0.015 mg/L

**Q.** What about the MIC (Providencia 12052) of the same compound?
**A.** 64 mg/L (≈ 137 µM)

**Q.** What about the MIC (Staphylococcus 133) of the same compound?
**A.** 1 mg/L (≈ 2.14 µM)

**Q.** What about the MIC (Staphylococcus 1746) of the same compound?
**A.** 1 mg/L (≈ 2.14 µM)

**Q.** And the MIC (Staphylococcus Fk 422)?
**A.** 1 mg/L (≈ 2.14 µM)
